Test results taken from ChEMBL document CHEMBL1127385, “Synthesis and diuretic activity of alkyl- and arylguanidine analogs of N,N'-dicyclohexyl-4-morpholinecarboxamidine in rats and dogs” (J Med Chem, 1994).
Values belong to the compound of their own block, whether it stands above or below them.

Columns and labels:
Rattus norvegicus [1] = assay: Total electrolytic excretion of sodium in urine of rats after peroral administration of 23.9 uM/Kg of drug; assay type: ADME, organism-based; settings: in vivo, po
Rattus norvegicus [2] = assay: Total electrolytic excretion of sodium in urine of rats after peroral administration of 71.6 uM/Kg of drug; assay type: ADME, organism-based; settings: in vivo, po
Canis familiaris [3] = assay: Total electrolytic excretion of sodium in urine of dogs after intravenous administration of 11.9 uM/Kg of drug; assay type: ADME, organism-based, Canis lupus familiaris; settings: dog, in vivo
Canis familiaris [4] = assay: Tested for the diuretic activity by measuring the urinary volume after intravenous administering 11.9 uM/Kg of drug in dogs; assay type: ADME, organism-based, Canis lupus familiaris, Urine; settings: dog, in vivo
Rattus norvegicus [5] = assay: Total electrolytic excretion of chlorine in urine of rats after peroral administration of 71.6 uM/Kg of drug; assay type: ADME, organism-based; settings: in vivo, po
Rattus norvegicus [6] = assay: Ratio of Total electrolytic excretion of sodium and potassium in urine of rats after peroral administration of 239 uM/Kg of drug; assay type: ADME, organism-based; settings: in vivo, po
Rattus norvegicus [7] = assay: Total electrolytic excretion of potassium in urine of rats after peroral administration of 239 uM/Kg of drug; assay type: ADME, organism-based; settings: in vivo, po
Rattus norvegicus [8] = assay: Ratio of Total electrolytic excretion of sodium and potassium in urine of rats after intravenous administration of 11.9 uM/Kg of drug; assay type: ADME, organism-based; settings: in vivo
Rattus norvegicus [9] = assay: Ratio of Total electrolytic excretion of sodium and potassium in urine of rats after peroral administration of 23.9 uM/Kg of drug; assay type: ADME, organism-based; settings: in vivo, po
Rattus norvegicus [10] = assay: Total electrolytic excretion of potassium in urine of rats after peroral administration of 71.6 uM/Kg of drug; assay type: ADME, organism-based; settings: in vivo, po
Rattus norvegicus [11] = assay: Total electrolytic excretion of potassium in urine of rats after peroral administration of 23.9 uM/Kg of drug; assay type: ADME, organism-based; settings: in vivo, po
Rattus norvegicus [12] = assay: Total electrolytic excretion of sodium in urine of rats after peroral administration of 239 uM/Kg of drug; assay type: ADME, organism-based; settings: in vivo, po
Rattus norvegicus [13] = assay: Total electrolytic excretion of chlorine in urine of rats after peroral administration of 23.9 uM/Kg of drug; assay type: ADME, organism-based; settings: in vivo, po
Canis familiaris [14] = assay: Total electrolytic excretion of potassium in urine of dogs after intravenous administration of 11.9 uM/Kg of drug; assay type: ADME, organism-based, Canis lupus familiaris; settings: dog, in vivo
Canis familiaris [15] = assay: Total electrolytic excretion of chlorine in urine of dogs after intravenous administration of 11.9 uM/Kg of drug; assay type: ADME, organism-based, Canis lupus familiaris; settings: dog, in vivo
Rattus norvegicus [16] = assay: Tested for the diuretic activity by measuring the urinary volume after peroral administering 239 uM/Kg of drug in rats; assay type: ADME, organism-based, Urine; settings: in vivo, po
Rattus norvegicus [17] = assay: Tested for the diuretic activity by measuring the urinary volume after peroral administering 71.6 uM/Kg of drug in rats; assay type: ADME, organism-based, Urine; settings: in vivo, po
Rattus norvegicus [18] = assay: Tested for the diuretic activity by measuring the urinary volume after peroral administering 23.9 uM/Kg of drug in rats; assay type: ADME, organism-based, Urine; settings: in vivo, po
Rattus norvegicus [19] = assay: Total electrolytic excretion of chlorine in urine of rats after peroral administration of 239 uM/Kg of drug; assay type: ADME, organism-based; settings: in vivo, po
Rattus norvegicus [20] = assay: Ratio of Total electrolytic excretion of sodium and potassium in urine of rats after peroral administration of 71.6 uM/Kg of drug; assay type: ADME, organism-based; settings: in vivo, po
Rattus norvegicus [21] = assay: Total electrolytic excretion of potassium in urine of rats after peroral administration of 0 uM/Kg of drug; assay type: ADME, organism-based; settings: in vivo, po
Rattus norvegicus [22] = assay: Total electrolytic excretion of sodium in urine of rats after peroral administration of 0 uM/Kg of drug; assay type: ADME, organism-based; settings: in vivo, po
Rattus norvegicus [23] = assay: Tested for the diuretic activity by measuring the urinary volume after peroral administering 0 uM/Kg of drug in rats; assay type: ADME, organism-based, Urine; settings: in vivo, po
Rattus norvegicus [24] = assay: Total electrolytic excretion of sodium in urine of rats after peroral administration of 83.8 uM/Kg of drug; assay type: ADME, organism-based; settings: in vivo, po
Rattus norvegicus [25] = assay: Ratio of Total electrolytic excretion of sodium and potassium in urine of rats after peroral administration of 83.8 uM/Kg of drug; assay type: ADME, organism-based; settings: in vivo, po
Rattus norvegicus [26] = assay: Total electrolytic excretion of potassium in urine of rats after peroral administration of 83.8 uM/Kg of drug; assay type: ADME, organism-based; settings: in vivo, po
Rattus norvegicus [27] = assay: Tested for the diuretic activity by measuring the urinary volume after peroral administering 27.9 uM/Kg of drug in rats; assay type: ADME, organism-based, Urine; settings: in vivo, po
Rattus norvegicus [28] = assay: Ratio of Total electrolytic excretion of sodium and potassium in urine of rats after peroral administration of 27.9 uM/Kg of drug; assay type: ADME, organism-based; settings: in vivo, po
Rattus norvegicus [29] = assay: Ratio of Total electrolytic excretion of sodium and potassium in urine of rats after peroral administration of 279 uM/Kg of drug; assay type: ADME, organism-based; settings: in vivo, po
Rattus norvegicus [30] = assay: Total electrolytic excretion of sodium in urine of rats after peroral administration of 279 uM/Kg of drug; assay type: ADME, organism-based; settings: in vivo, po
Rattus norvegicus [31] = assay: Total electrolytic excretion of sodium in urine of rats after peroral administration of 27.9 uM/Kg of drug; assay type: ADME, organism-based; settings: in vivo, po
Rattus norvegicus [32] = assay: Total electrolytic excretion of potassium in urine of rats after peroral administration of 27.9 uM/Kg of drug; assay type: ADME, organism-based; settings: in vivo, po
Rattus norvegicus [33] = assay: Total electrolytic excretion of potassium in urine of rats after peroral administration of 279 uM/Kg of drug; assay type: ADME, organism-based; settings: in vivo, po
Rattus norvegicus [34] = assay: Tested for the diuretic activity by measuring the urinary volume after peroral administering 279 uM/Kg of drug in rats; assay type: ADME, organism-based, Urine; settings: in vivo, po
Rattus norvegicus [35] = assay: Total electrolytic excretion of chlorine in urine of rats after peroral administration of 27.9 uM/Kg of drug; assay type: ADME, organism-based; settings: in vivo, po
Rattus norvegicus [36] = assay: Tested for the diuretic activity by measuring the urinary volume after peroral administering 83.8 uM/Kg of drug in rats; assay type: ADME, organism-based, Urine; settings: in vivo, po
Rattus norvegicus [37] = assay: Total electrolytic excretion of chlorine in urine of rats after peroral administration of 279 uM/Kg of drug; assay type: ADME, organism-based; settings: in vivo, po
Rattus norvegicus [38] = assay: Total electrolytic excretion of chlorine in urine of rats after peroral administration of 83.8 uM/Kg of drug; assay type: ADME, organism-based; settings: in vivo, po

- Excretion Na+ (Rattus norvegicus [1]): 1.1 m equiv
- Excretion Na+ (Rattus norvegicus [2]): 1.41 m equiv
- Excretion Na+ (Canis familiaris [3]): 8.5 m equiv
- V (Canis familiaris [4]): 57 mL
- Excretion Cl- (Rattus norvegicus [5]): 1.45 m equiv
- Ratio (Rattus norvegicus [6]): 5.8 [Na+]/[K+]
- Excretion K+ (Rattus norvegicus [7]): 0.33 m equiv
- Ratio (Rattus norvegicus [8]): 7.4 [Na+]/[K+]
- Ratio (Rattus norvegicus [9]): 4.1 [Na+]/[K+]
- Excretion K+ (Rattus norvegicus [10]): 0.32 m equiv
- Excretion K+ (Rattus norvegicus [11]): 0.27 m equiv
- Excretion Na+ (Rattus norvegicus [12]): 1.92 m equiv
- Excretion Cl- (Rattus norvegicus [13]): 1.17 m equiv
- Excretion K+ (Canis familiaris [14]): 1.1 m equiv
- Excretion Cl- (Canis familiaris [15]): 5.7 m equiv
- V (Rattus norvegicus [16]): 13.2 mL
- V (Rattus norvegicus [17]): 10.6 mL
- V (Rattus norvegicus [18]): 7.4 mL
- Excretion Cl- (Rattus norvegicus [19]): 1.69 m equiv
- Ratio (Rattus norvegicus [20]): 4.4 [Na+]/[K+]
Structure (SMILES): Clc1ccc(N/C(=N/C2CCCCC2)N2CCOCC2)cc1Cl

- Excretion K+ (Rattus norvegicus [21]): 0.24 m equiv
- Excretion Na+ (Rattus norvegicus [22]): 0.65 m equiv
- V (Rattus norvegicus [23]): 4.4 mL
Structure (SMILES): NS(=O)(=O)c1cc(C(=O)O)c(NCc2ccco2)cc1Cl [FUROSEMIDE]

- Excretion Na+ (Rattus norvegicus [24]): 1.53 m equiv
- Ratio (Rattus norvegicus [25]): 5
- Excretion K+ (Rattus norvegicus [26]): 0.31 m equiv
- V (Rattus norvegicus [27]): 8.4 mL
- Ratio (Rattus norvegicus [28]): 3.8
- Ratio (Rattus norvegicus [29]): 5.6
- Excretion Na+ (Rattus norvegicus [30]): 1.54 m equiv
- Excretion Na+ (Rattus norvegicus [31]): 1.21 m equiv
- Excretion K+ (Rattus norvegicus [32]): 0.32 m equiv
- Excretion K+ (Rattus norvegicus [33]): 0.28 m equiv
- V (Rattus norvegicus [34]): 9.1 mL
- Excretion Cl- (Rattus norvegicus [35]): 1.37 m equiv
- V (Rattus norvegicus [36]): 9.7 mL
- Excretion Cl- (Rattus norvegicus [37]): 1.66 m equiv
- Excretion Cl- (Rattus norvegicus [38]): 1.63 m equiv
Structure (SMILES): C1CCCC(/N=C(/NC2CCCCCC2)N2CCOCC2)CC1
